In ChEMBL document CHEMBL4130638, “Discovery of the Polyamine Conjugate with Benzo[ cd]indol-2(1 H)-one as a Lysosome-Targeted Antimetastatic Agent” (J Med Chem, 2018):
Calls of active or inactive are those of the source. No cut-off for these calls is given here.

Legend:
HCT-116 [1] = assay: Growth inhibition of human HCT116 cells after 48 hrs by MTT assay; assay type: functional, cell-based; details: HCT-116, 48 h
HepG2 = assay: Growth inhibition of human HepG2 cells after 48 hrs by MTT assay; assay type: functional, cell-based; details: HepG2, 48 h
HCT-116 [2] = assay: Growth inhibition of human HCT116 cells after 24 hrs by MTT assay; assay type: functional, cell-based
CT26 [3] = assay: Antimigratory activity against mouse CT26 cells after 24 hrs by crystal violet staining based transwell assay; assay type: functional, cell-based
CT26 [4] = assay: Antimetastatic activity against mouse CT26 cells implanted in Balb/c mouse assessed as inhibition of pulmonary metastasis nodules at 1 mg/kg, iv for 7 consecutive days starting from day 8 post tumor implantation measured on day 15 post tumor implantation relative to control; assay type: functional
Mus musculus [5] = assay: Toxicity in Balb/c mouse implanted with mouse CT26 cells assessed as changes in body weight at 1 mg/kg, iv for 7 consecutive days starting from day 8 post tumor implantation; assay type: organism-based; details: in vivo
Mus musculus [6] = assay: Toxicity in Balb/c mouse implanted with mouse CT26 cells assessed as increase in heart weight at 1 mg/kg, iv for 7 consecutive days starting from day 8 post tumor implantation; assay type: organism-based; details: in vivo
Mus musculus [7] = assay: Toxicity in Balb/c mouse implanted with mouse CT26 cells assessed as increase in liver weight at 1 mg/kg, iv for 7 consecutive days starting from day 8 post tumor implantation; assay type: organism-based; details: in vivo
[8] = Drug uptake in human HCT116 cells assessed as PAT-mediated drug internalization at 2.5 to 7.5 uM after 24 hrs in presence of spermidine by high content screening analysis; assay type: ADME, cell-based
HCT-116 [9] = assay: Growth inhibition of human HCT116 cells at 2.5 to 7.5 uM after 24 hrs in presence of spermidine by MTT assay; assay type: functional, cell-based
HCT-116 [10] = assay: Decrease in spermine level in human HCT116 cells at 2.5 to 10 uM after 24 hrs by G1321A fluorescence detector coupled HPLC analysis; assay type: functional, cell-based
HCT-116 [11] = assay: Decrease in spermidine level in human HCT116 cells at 2.5 to 10 uM after 24 hrs by G1321A fluorescence detector coupled HPLC analysis; assay type: functional, cell-based
[12] = Drug uptake in human HCT116 cell lysosomes at 10 uM after 2 hrs by Lyso-tracker staining based confocal microscopic method; assay type: ADME, subcellular, Lysosome; details: hct-116, 2 h
HCT-116 [13] = assay: Induction of apoptosis in human HCT116 cells after 24 hrs by acridine orange and ethidium bromide staining based high content screening analysis; assay type: functional, cell-based
CT26 [14] = assay: Induction of apoptosis in mouse CT26 cells after 24 hrs by acridine orange and ethidium bromide staining based high content screening analysis; assay type: functional, cell-based
HCT-116 [15] = assay: Induction of apoptosis in human HCT116 cells assessed as late apoptotic cells at 10 uM after 24 hrs by annexin V-FITC/propidium iodide staining based flow cytometry (reference value: 2.03%); assay type: functional
HCT-116 [16] = assay: Induction of apoptosis in human HCT116 cells assessed as late apoptotic cells at 10 uM after 24 hrs in presence of autophagy inhibitor 3-MA by annexin V-FITC/propidium iodide staining based flow cytometry (reference value: 2.03%); assay type: functional
HCT-116 [17] = assay: Induction of apoptosis in human HCT116 cells assessed as late apoptotic cells at 10 uM after 24 hrs in presence of pan-caspase inhibitor Z-VAD-FMK by annexin V-FITC/propidium iodide staining based flow cytometry (reference value: 2.03%); assay type: functional
HCT-116 [18] = assay: Induction of apoptosis in human HCT116 cells assessed as necrotic cells at 10 uM after 24 hrs in presence of pan-caspase inhibitor Z-VAD-FMK by annexin V-FITC/propidium iodide staining based flow cytometry (reference value: 3.9%); assay type: functional
CT26 [19] = assay: Induction of apoptosis in mouse CT26 cells assessed as live cells at 10 uM after 24 hrs in presence of autophagy inhibitor 3-MA by annexin V-FITC/propidium iodide staining based flow cytometry (reference value: 89.47%); assay type: functional
CT26 [20] = assay: Induction of apoptosis in mouse CT26 cells assessed as early apoptotic cells at 10 uM after 24 hrs in presence of autophagy inhibitor 3-MA by annexin V-FITC/propidium iodide staining based flow cytometry (reference value: 3.91%); assay type: functional
CT26 [21] = assay: Induction of apoptosis in mouse CT26 cells assessed as necrotic cells at 10 uM after 24 hrs in presence of autophagy inhibitor 3-MA by annexin V-FITC/propidium iodide staining based flow cytometry (reference value: 4.36%); assay type: functional
CT26 [22] = assay: Induction of apoptosis in mouse CT26 cells assessed as early apoptotic cells after 24 hrs by annexin V-FITC/propidium iodide staining based flow cytometry; assay type: functional, cell-based
HCT-116 [23] = assay: Induction of apoptosis in human HCT116 cells assessed as early apoptotic cells after 24 hrs by annexin V-FITC/propidium iodide staining based flow cytometry; assay type: functional, cell-based
HCT-116 [24] = assay: Induction of autophagy in human HCT116 cells at 1 to 20 uM after 24 hrs by Lyso staining based flow cytometry; assay type: functional, cell-based
HCT-116 [25] = assay: Induction of autophagy in human HCT116 cells at 5 to 20 uM after 24 hrs in presence of autophagy inhibitor 3-MA by MDC staining based flow cytometry; assay type: functional, cell-based
HCT-116 [26] = assay: Induction of autophagy in human HCT116 cells at 5 to 20 uM after 24 hrs in presence of autophagy inhibitor 3-MA by Lyso staining based flow cytometry; assay type: functional, cell-based
HCT-116 [27] = assay: Induction of autophagy in human HCT116 cells at 5 to 20 uM after 24 hrs in presence of pan-caspase inhibitor Z-VAD-FMK by MDC staining based flow cytometry; assay type: functional, cell-based
HCT-116 [28] = assay: Induction of autophagy in human HCT116 cells assessed as accumulation of LC3-2 after 24 hrs by Western blot method; assay type: functional, cell-based
HCT-116 [29] = assay: Upregulation of LAMP1 protein expression in human HCT116 cells at 10 uM after 24 hrs by Western blot method; assay type: functional, cell-based
HCT-116 [30] = assay: Downregulation of cathepsin-B protein expression in human HCT116 cells after 24 hrs by Western blot method; assay type: functional, cell-based
HCT-116 [31] = assay: Downregulation of cathepsin-L protein expression in human HCT116 cells after 24 hrs by Western blot method; assay type: functional, cell-based
HCT-116 [32] = assay: Downregulation of p62 protein expression in human HCT116 cells after 24 hrs by Western blot method; assay type: functional, cell-based
[33] = molecular target: Serine/threonine-protein kinase mTOR (Homo sapiens) (UniProt P42345); assay: Inhibition of mTOR phosphorylation in human HCT116 cells after 24 hrs by Western blot method; assay type: cell-based
HCT-116 [34] = assay: Downregulation of mTOR protein expression in human HCT116 cells after 24 hrs by Western blot method; assay type: functional, cell-based
HCT-116 [35] = assay: Upregulation of p53 protein expression in human HCT116 cells after 24 hrs by Western blot method; assay type: functional, cell-based
HCT-116 [36] = assay: Upregulation of cleaved caspase-3 protein expression in human HCT116 cells up to 10 uM after 24 hrs in presence of autophagy inhibitor 3-MA by Western blot method; assay type: functional, cell-based
HCT-116 [37] = assay: Downregulation of Bcl2 protein expression in human HCT116 cells up to 10 uM after 24 hrs in presence of autophagy inhibitor 3-MA by Western blot method; assay type: functional, cell-based
HCT-116 [38] = assay: Upregulation of p53 protein expression in human HCT116 cells up to 10 uM after 24 hrs in presence of autophagy inhibitor 3-MA by Western blot method; assay type: functional, cell-based

Cl.Cl.Cl.NCCCCNCCCCNCCCCN1C(=O)c2cccc3cccc1c23
IC50 (HCT-116 [1]): 5.72 µM | IC50 (HepG2): 5.28 µM | growth inhibition (GI) (HCT-116 [2]): Dose-dependent effect | IC50 (HCT-116 [2]; HCT-116, 24 h): 6.9 µM | Activity (CT26 [3]): Dose-dependent effect | inhibition in vivo at 1 mg/kg (CT26 [4]): 82.5% | Activity (Mus musculus [5]): Non-Toxic | Activity (Mus musculus [6]): Toxic | Activity (Mus musculus [7]): Toxic | Drug uptake [8]: Not Active | growth inhibition (GI) (HCT-116 [9]): inactive | Activity (HCT-116 [10]): Active | Activity (HCT-116 [11]): Active | Drug uptake [12]: Active | Activity (HCT-116 [13]): Dose-dependent effect | Activity (CT26 [14]): Dose-dependent effect | Activity (HCT-116 [15]): 27.58% | Activity (HCT-116 [16]): 18.92% | Activity (HCT-116 [17]): 13.6% | Activity (HCT-116 [18]): 8.07% | Activity (CT26 [19]): 61.63% | Activity (CT26 [20]): 27.36% | Activity (CT26 [21]): 4.42% | Activity (CT26 [22]): Dose-dependent effect | Activity (HCT-116 [23]): Dose-dependent effect | Activity (HCT-116 [24]): Active | Activity (HCT-116 [25]): inactive | Activity (HCT-116 [26]): inactive | Activity (HCT-116 [27]): inactive | Activity (HCT-116 [28]): Dose-dependent effect | Activity (HCT-116 [29]): Active | Activity (HCT-116 [30]): Dose-dependent effect | Activity (HCT-116 [31]): Dose-dependent effect | Activity (HCT-116 [32]): Dose-dependent effect | inhibition [33]: Dose-dependent effect | Activity (HCT-116 [34]): Dose-dependent effect | Activity (HCT-116 [35]): Dose-dependent effect | Activity (HCT-116 [36]): inactive | Activity (HCT-116 [37]): inactive | Activity (HCT-116 [38]): inactive
